# Legend:
# Assay type in all cases: cell-based
# HIV-1Ba-L [1] = assay: HIV-1 production by chronically infected PBMC, p24-core antigen ELISA; details: Fig 6B; APHS added 5 days after infection, 2 days of incubation
# Description: (§1) (A, B) Peripheral blood mononuclear cells (PBMC) were isolated from heparinized blood from HIV-1-, HIV-2-, and hepatitis B-seronegative donors and obtained on Ficoll-Hypaque density gradients. Cells were washed twice, stimulated with 5 µg/ml phytohemagglutinin (PHA), and cultured m RPMI-1640 medium supplemented with 5 mM Hepes, 19 mM sodium bicarbonate, 10 µg/mL gentamicin, and 10% heat-inactivated fetal calf serum (PBMC culture medium) at a concentration of 2 x 10^6 cells/ml. After 3 days of incubation stimulated PBMC were recovered from the flasks and infected for 2 hours with HIV-1Ba-L at a multiplicity of infection of 0.01. Afterwards, HIV-infected and mock-infected PBMC were washed twice to remove unbound virus. […] (B) PBMC were cultured in suspension at a concentration of 2 x 10^6 cells/ml in Teflon flasks in PBMC culture medium. […] After 2 days of incubation samples of culture supernatant were collected. p24-core antigen production was quantified using the enzyme-linked immunosorbent assay (ELISA) system of John Moore. […] (C, D) PBMC were isolated from heparinized blood from HIV-1-, HIV-2-, and hepatitis B-seronegative donors and obtained on Ficoll-Hypaque density gradients. […] After 2 days of incubation samples of culture supernatant were collected. p24-core antigen production was quantified using the enzyme-linked immunosorbent assay (ELISA) system of John Moore. […]
# HIV-1Ba-L [2] = assay: HIV-1 production by chronically infected MDM, p24-core antigen ELISA; details: Fig 6D; APHS added 5 days after infection, 2 days of incubation
# Description: as §1
# HXB2 = assay: IC50 of APHS for HIV-1 strains (Table 2), sensitive strain; details: Human immunodeficiency virus 1, HXB2, read-out: IC50 of APHS
smiles,measurement,setting,value
"CCCCC#CCSc1ccccc1OC(C)=O [APHS, o-(acetoxy-phenyl)hept-2-ynyl sulphide]",inhibition of HIV-1 production of chronically infected PBMCs,HIV-1Ba-L [1],does not inhibit
same,inhibition of HIV-1 production by chronically infected MDM,HIV-1Ba-L [2],does not inhibit
same,IC50,HXB2,12.6 ± 2.3 µM
